These results are taken from patent US9617256B2 (priority 2007, dated 2017).

Assay [1] concerns ASAU001 (laboratory strain of S. aureus, ATCC29213). Description: MIC broth microdilution, ASAU001. Type of assay: cell-based. The conditions noted are these: for MIC: Staphylococcus aureus, ATCC29213, read-out: MIC ASAU001. A digest of the protocol:
(§1)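 Inocula prepared from 0.5 McFarland suspensions (final 3×10^5–7×10^5 CFU/mL) were added to 2-fold drug dilution series in cation-adjusted Mueller-Hinton broth. Plates stood 18-24 hours at 35° C. under ambient air.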
(In general: Broth dilution looks for growth in wells or tubes with falling amounts of substance.)

The test system of a further assay is APAE001 (ATCC27853). Description: MIC broth microdilution, APAE001. Type of assay: cell-based, P. aeruginosa. As to conditions: for MIC: Pseudomonas aeruginosa, ATCC27853, read-out: MIC APAE001, APAE001 is ATCC27853. Summed up:
as §1

Assay [2] concerns APAE006 (strain of P. aeruginosa in which all efflux pumps are inactivated). Description: microbe, parasite or virus in culture. Format: cell-based. As to conditions: for MIC: Pseudomonas aeruginosa, read-out: MIC APAE006, P. aeruginosa, all efflux pumps inactivated. Summed up: (§2)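 CLSI broth microdilution in cation-adjusted Mueller-Hinton broth, final inoculum 3×10^5–7×10^5 CFU/mL, 2-fold drug dilutions, 18-24 hours at 35° C. in ambient air. APAE006 is an efflux-pump-inactivated P. aeruginosa strain. Assay performance monitored with QC strains and levofloxacin.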

The test system of a further assay is AECO001 HSA AGP. Nature of the assay: MIC broth microdilution, AECO001 HSA AGP. Type of assay: cell-based, E. coli. As to conditions: for MIC: Escherichia coli. Summed up: as §1
Assay [3] relates to AECO063 (ATCC25922 bearing an acrAB mutation). Description: microbe, parasite or virus in culture. Type of assay: cell-based, E. coli. The conditions noted are these: for MIC: Escherichia coli, ATCC25922, read-out: MIC AECO063. A digest of the protocol:
as §1

Another assay concerns AECO001 (ATCC25922). Nature of the assay: MIC broth microdilution, AECO001. Type of assay: cell-based, E. coli. As to conditions: for MIC: Escherichia coli, ATCC25922, read-out: MIC AECO001. A digest of the protocol: as §1
Assay [4] deals with APAE006 in the presence of 8 micrograms per milliliter of polymyxin B nonapeptide. Type of assay: cell-based, P. aeruginosa. The conditions noted are these: in the presence of 8 micrograms per milliliter of polymyxin B nonapeptide. Summed up:
as §2

Assay [5] concerns AABA1060 (clinical isolate of Acinetobacter baumannii). Nature of the assay: MIC broth microdilution, AABA1060. Type of assay: cell-based. The conditions noted are these: for MIC: Acinetobacter baumannii, read-out: MIC AABA1060. A digest of the protocol: as §1

In brackets after ≈: the same amount, converted by molar mass.

For the molecule “3-Amino-N-hydroxy-3-methyl-2-[3-(4-morpholin-4-ylmethyl-phenyl)-propynoylamino]-butyramide [Example 129-1]”, the “MIC ASAU001” value in assay [1] (S. aureus ATCC29213) was “D (MIC's of greater than 64.0 μg/mL = D)”. The “MIC APAE001” value with APAE001 (ATCC27853) (APAE001 is ATCC27853) is listed as “A (MIC's of 2.0 μg/mL or less = A)”. Further, the “MIC APAE006” value in assay [2] (P. aeruginosa, all efflux pumps inactivated) is “A (MIC's of 2.0 μg/mL or less = A)”. Moreover, the “MIC AECO001 HSA AGP” value in the assay with AECO001 HSA AGP is “B (MIC's of greater than 2.0 μg/mL to 16.0 μg/mL = B)”. Besides, in assay [3] (ATCC25922 bearing an acrAB mutation), the “MIC AECO063” value is “A (MIC's of 2.0 μg/mL or less = A)”. In addition, in the assay on AECO001 (ATCC25922) (AECO001 is ATCC25922), the “MIC AECO001” value is reported as “A (MIC's of 2.0 μg/mL or less = A)”. In assay [4], the “MIC APAE006 + PMBN” value is recorded as “A (MIC's of 2.0 μg/mL or less = A)”. The “MIC AABA1060” value in assay [5] (clinical isolate of Acinetobacter baumannii) was “B (MIC's of greater than 2.0 μg/mL to 16.0 μg/mL = B)”.

With `CC(C)(O)[C@H](NC(=O)c1ccc(C#CC#Cc2ccccc2)cc1)C(=O)NO` [Example 82-13], the MIC in assay [1] was 16 to 64 µg/mL (≈ 42.5 to 170 µM); in the assay on APAE001 (ATCC27853), under 2 µg/mL; in assay [2], under 2 µg/mL; with AECO001 HSA AGP it was under 2 µg/mL; in assay [3] it was under 2 µg/mL; with AECO001 (ATCC25922), under 2 µg/mL. In assay [5], the MIC was under 2 µg/mL. In assay [4], the “MIC APAE006 + PMBN” value is reported as “A (MIC's of 2.0 μg/mL or less = A)”.

For `C[C@@H](O)[C@H](NC(=O)c1ccc(C#Cc2ccc(C(F)(F)F)nc2)cc1)C(=O)NO` [Example 133-10], the MIC is 16 to 64 µg/mL (≈ 39.3 to 157 µM) in assay [1]; 16 to 64 µg/mL (≈ 39.3 to 157 µM) in the assay with APAE001 (ATCC27853); under 2 µg/mL in assay [2]; 2 to 16 µg/mL (≈ 4.91 to 39.3 µM) in the assay on AECO001 HSA AGP; under 2 µg/mL in assay [3]; 2 to 16 µg/mL (≈ 4.91 to 39.3 µM) with AECO001 (ATCC25922). In assay [5], the MIC was 16 to 64 µg/mL (≈ 39.3 to 157 µM). In assay [4], the “MIC APAE006 + PMBN” value is given as “A (MIC's of 2.0 μg/mL or less = A)”.

`CC(C)(O)[C@H](NC(=O)c1ccc(C#C/C=C/c2ccccc2)cc1)C(=O)NO` [Example 104-3]: the MIC in assay [1] is 16 to 64 µg/mL (≈ 42.3 to 169 µM); in the assay with APAE001 (ATCC27853), under 2 µg/mL; in assay [2] it was under 2 µg/mL; against AECO001 HSA AGP, 2 to 16 µg/mL (≈ 5.29 to 42.3 µM); in assay [3], under 2 µg/mL; in the assay on AECO001 (ATCC25922), under 2 µg/mL. Besides, in assay [5], the MIC was under 2 µg/mL. Also, the “MIC APAE006 + PMBN” value in assay [4] was “A (MIC's of 2.0 μg/mL or less = A)”.

Regarding `C[C@@H](N)[C@H](NC(=O)c1ccc(C#CC#Cc2ccccc2F)cc1)C(=O)NO` [Example 82-7], the MIC was 2 to 16 µg/mL (≈ 5.27 to 42.2 µM) in assay [1]; under 2 µg/mL with APAE001 (ATCC27853); under 2 µg/mL in assay [2]; 2 to 16 µg/mL (≈ 5.27 to 42.2 µM) against AECO001 HSA AGP; under 2 µg/mL in assay [3]; under 2 µg/mL in the assay on AECO001 (ATCC25922). Moreover, the MIC in assay [5] was under 2 µg/mL. Also, the “MIC APAE006 + PMBN” value in assay [4] is reported as “A (MIC's of 2.0 μg/mL or less = A)”.

Regarding `C[C@@H](N)[C@H](NC(=O)c1ccc(/C=C/C#Cc2ccc(Cl)cc2)cc1)C(=O)NO` [Example 114-10], the MIC in assay [1] was 16 to 64 µg/mL (≈ 40.2 to 161 µM); in the assay with APAE001 (ATCC27853), 2 to 16 µg/mL (≈ 5.03 to 40.2 µM); in assay [2], under 2 µg/mL; against AECO001 HSA AGP, 2 to 16 µg/mL (≈ 5.03 to 40.2 µM); in assay [3], under 2 µg/mL; in the assay with AECO001 (ATCC25922) it was under 2 µg/mL. Also, in assay [5], the MIC was in the range of 2 to 16 µg/mL (≈ 5.03 to 40.2 µM). The “MIC APAE006 + PMBN” value in assay [4] was “A (MIC's of 2.0 μg/mL or less = A)”.

With `O=C(N[C@H](C(=O)NO)C1CC1)c1ccc(/C=C/C#Cc2ccc(CN3CCOCC3)cc2)cc1` [Example 110-9], the MIC in assay [1] is over 64 µg/mL; in the assay with APAE001 (ATCC27853), 2 to 16 µg/mL (≈ 4.35 to 34.8 µM); in assay [2], under 2 µg/mL; against AECO001 HSA AGP it was 2 to 16 µg/mL (≈ 4.35 to 34.8 µM); in assay [3] it was under 2 µg/mL; with AECO001 (ATCC25922) it was under 2 µg/mL. Further, in assay [5], the MIC is 2 to 16 µg/mL (≈ 4.35 to 34.8 µM). Further, the “MIC APAE006 + PMBN” value in assay [4] was “A (MIC's of 2.0 μg/mL or less = A)”.

On to `CC(C)(O)[C@H](NC(=O)c1ccc(/C=C/C#Cc2ccc(CO)cc2)cc1)C(=O)NO` [Example 112-5], for which the MIC in assay [1] was 16 to 64 µg/mL (≈ 39.2 to 157 µM); in the assay on APAE001 (ATCC27853) it was under 2 µg/mL; in assay [2], under 2 µg/mL; in the assay on AECO001 HSA AGP, 2 to 16 µg/mL (≈ 4.9 to 39.2 µM); in assay [3], under 2 µg/mL; in the assay with AECO001 (ATCC25922), under 2 µg/mL. The MIC in assay [5] is under 2 µg/mL. In addition, the “MIC APAE006 + PMBN” value in assay [4] is recorded as “A (MIC's of 2.0 μg/mL or less = A)”.

Regarding `C[C@@H](O)[C@H](NC(=O)c1ccc(C#CC#Cc2cncn2C)cc1)C(=O)NO` [Example 88-9], the MIC in assay [1] is 16 to 64 µg/mL (≈ 43.7 to 175 µM); with APAE001 (ATCC27853), 2 to 16 µg/mL (≈ 5.46 to 43.7 µM); in assay [2], under 2 µg/mL; against AECO001 HSA AGP it was 2 to 16 µg/mL (≈ 5.46 to 43.7 µM); in assay [3] it was under 2 µg/mL; in the assay on AECO001 (ATCC25922), under 2 µg/mL. Also, the MIC in assay [5] was in the range of 16 to 64 µg/mL (≈ 43.7 to 175 µM). Also, in assay [4], the “MIC APAE006 + PMBN” value was “A (MIC's of 2.0 μg/mL or less = A)”.
